According to ChEMBL document CHEMBL3137667, “[Drug-induced liver injury; fourteenth updated edition of the bibliographic database of liver injuries and related drugs]” (Gastroenterol Clin Biol, 2004):

What was measured:
[1] = human
[2] = human, serum
[3] = human; remark: listed apart in the source
[4] = human; remark: listed apart in the source
[5] = Highest frequency of moderate liver toxicity observed during clinical trials, expressed as a percentage. [column '% BIOL' in source]; conditions: human
[6] = human; remark: listed apart in the source
[7] = human; remark: listed apart in the source
[8] = human, serum; remark: listed apart in the source
[9] = Highest frequency of acute liver toxicity observed during clinical trials, expressed as a percentage. [column '% AIGUE' in source]; conditions: human
[10] = human; remark: listed apart in the source
[11] = human; remark: listed apart in the source
[12] = human, serum, 4383 h
[13] = human; remark: listed apart in the source
[14] = human; remark: listed apart in the source
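For Hepatotoxicity (association with vascular disease) in this document: count of indexed literature references reporting vascular liver injury in humans, e.g. peliosis hepatitis, hepatic veno-occlusive disease or Budd-Chiari syndrome.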
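For Hepatotoxicity (benign tumour) in this document: value is a count of indexed literature references citing a benign tumour confirmed by histopathology.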
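For Hepatotoxicity (choleostasis) in this document: human cholestatic liver injury, shown by histopathology or by peak ALT or AST elevation over alkaline phosphatase ratio below 2, value counts indexed literature reports.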
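For Hepatotoxicity (chronic liver disease) in this document: chronic liver injury confirmed by histopathology or persistently raised serum aminotransferase activity beyond 6 months, value given as the count of indexed literature references.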
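For Hepatotoxicity (cirrhosis) in this document: value is a count of indexed literature references reporting cirrhosis confirmed by histopathology.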
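For Hepatotoxicity (cytolytic) in this document: human cytolytic liver injury, shown by histopathology or by a ratio above 5 of peak ALT or AST elevation to alkaline phosphatase elevation, value counts indexed references.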
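For Hepatotoxicity (granulomatous hepatitis) in this document: value is a count of indexed literature references reporting granulomatous liver disease confirmed by histopathology.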
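For Hepatotoxicity (malignant tumour) in this document: malignant tumour confirmed by histopathology, value gives the count of indexed literature references reporting it.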
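For Hepatotoxicity (severe hepatitis) in this document: human clinical data: severe hepatitis, meaning potentially life-threatening liver failure or clinically observed cases, the value counts how many indexed literature references report it.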
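For Hepatotoxicity (steatosis) in this document: steatosis confirmed by histopathology, value is the count of indexed references.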

| Compound | Hepatotoxicity (cytolytic) [1] | Hepatotoxicity (moderate) [2] | Hepatotoxicity (severe hepatitis) [3] | Hepatotoxicity (benign tumour) [4] | Hepatotoxicity (moderate) [5] | Hepatotoxicity (choleostasis) [6] | Hepatotoxicity (malignant tumour) [7] | Hepatotoxicity (acute) [8] | Hepatotoxicity (acute) [9] | Hepatotoxicity (cirrhosis) [10] | Hepatotoxicity (association with vascular disease) [11] | Hepatotoxicity (chronic liver disease) [12] | Hepatotoxicity (granulomatous hepatitis) [13] | Hepatotoxicity (steatosis) [14] |
| --- | --- | --- | --- | --- | --- | --- | --- | --- | --- | --- | --- | --- | --- | --- |
| N[C@H](C(=O)O)[C@@H]1CC(Cl)=NO1 [ACIVICIN] | 0 | 3 | 0 | 0 | 62% | 0 | 0 | 0 | 0% | 0 | 0 | 0 | 0 | 0 |
| CC(C(=O)O)c1ccc(CC2CCCC2=O)cc1 (stereo not drawn) [LOXOPROFEN] | 0 | 0 | 1 | 0 | 0% | 0 | 0 | 1 | 0% | 0 | 0 | 0 | 0 | 0 |
| C[C@H](CSC(=O)c1ccccc1)C(=O)N1C[C@@H](Sc2ccccc2)C[C@H]1C(=O)O [ZOFENOPRIL] | 0 | 1 | 0 | 0 | 5.3% | 0 | 0 | 0 | 0% | 0 | 0 | 0 | 0 | 0 |
| CC[C@@]1(O)C(=O)OCc2c1cc1n(c2=O)Cc2cc3c(CN(C)C)c(O)ccc3nc2-1 [TOPOTECAN] | 0 | 1 | 0 | 0 | 5.3% | 0 | 0 | 0 | 0% | 0 | 0 | 0 | 0 | 0 |
| CN1CCC[C@@H]1CCO[C@](C)(c1ccccc1)c1ccc(Cl)cc1 [CLEMASTINE] | 0 | 1 | 0 | 0 | 0.7% | 0 | 0 | 0 | 0% | 0 | 0 | 0 | 0 | 0 |
| O=C1NCCN1CCN1CCC(c2cn(-c3ccc(F)cc3)c3ccc(Cl)cc23)CC1 [SERTINDOLE] | 0 | 1 | 0 | 0 | 1.4% | 0 | 0 | 0 | 0% | 0 | 0 | 0 | 0 | 0 |
| CNC(=O)c1cccc2c(Nc3ccc(NS(C)(=O)=O)cc3OC)c3cccc(C)c3nc12 [ASULACRINE] | 0 | 2 | 0 | 0 | 17% | 0 | 0 | 0 | 0% | 0 | 0 | 0 | 0 | 0 |
| CC(=O)OCOC(=O)C1=C(COC(N)=O)SC2[C@H]([C@H](C)O)C(=O)N12 (stereo partly drawn) | 0 | 25 | 0 | 0 | 20% | 0 | 0 | 0 | 0% | 0 | 0 | 0 | 0 | 0 |
| NC(=O)c1cc[n+](CC2=C(C(=O)O)N3C(=O)[C@@H](NC(=O)[C@@H](c4ccccc4)S(=O)(=O)[O-])[C@H]3SC2)cc1 [CEFSULODIN] | 0 | 4 | 0 | 0 | 18.2% | 0 | 0 | 0 | 0% | 0 | 0 | 0 | 0 | 0 |
| CC(C)(CNC(N)=O)NCC(O)COC(=O)c1ccccc1F (stereo not drawn) [FLESTOLOL] | 0 | 2 | 0 | 0 | 6.7% | 0 | 0 | 0 | 0% | 0 | 0 | 0 | 0 | 0 |
| SODIUM NITROPRUSSIDE | 0 | 1 | 0 | 0 | 41% | 0 | 0 | 0 | 0% | 0 | 0 | 0 | 0 | 0 |
| CCOC(=O)OC(C)OC(=O)[C@@H]1N2C(=O)[C@@H](/N=C/N3CCCCCC3)[C@H]2SC1(C)C (stereo partly drawn) [BACMECILLINAM] | 0 | 3 | 0 | 0 | 1.8% | 0 | 0 | 0 | 0% | 0 | 0 | 0 | 0 | 0 |
